The source of these data is US20240238423A9, “TETRAHYDROISOQUINOLINE HETEROBIFUNCTIONAL BCL-XL DEGRADERS” (Treeline Biosciences, Inc., priority 2022, published 2024).

Each structure is given as a SMILES string.

This test concerns the target T1, Human BCL-XL protein (N-terminal HiBiT tagged BCL-XL in HT1080 cells) (Homo sapiens, UniProt Q07817).
T1 construct: expressed in transfected cells; host or cells: HT-1080 (ATCC CCL-121), stably transduced with lentivirus pLV-UBC-N-HiBiT-BCL-XL-PGK-puro and selected with puromycin
As to the kind of experiment: HiBiT based degradation assay. The following applies: HT1080 cells expressing HiBiT-BCL-XL, 24 h; for Ymin (24 h): BCL-XL degradation normalized with DMSO control; for DC50: BCL-XL degradation, read-out: EC50 (24 h). Type of test: cell-based. A digest of the protocol:
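HT1080 cells stably transduced by lentivirus with N-terminally HiBiT-tagged human BCL-XL and kept under 1 μg/mL puromycin selection were seeded at three thousand cells per well in 40 μL RPMI 1640 into 384-well plates pre-spotted with compounds across a concentration range. Luminescence was read on a PHERAstar FSX, normalized to DMSO, and fitted with a four-parameter logistic model.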

T1 sequence (Q07817 whole entry): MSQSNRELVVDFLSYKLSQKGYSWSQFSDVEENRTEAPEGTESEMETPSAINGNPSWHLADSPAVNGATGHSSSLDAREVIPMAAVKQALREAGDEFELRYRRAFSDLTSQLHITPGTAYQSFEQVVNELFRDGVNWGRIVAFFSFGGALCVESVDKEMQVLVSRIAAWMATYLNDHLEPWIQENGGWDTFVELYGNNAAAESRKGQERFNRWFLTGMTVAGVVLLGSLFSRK

For `Cc1c(O[C@H]2CC[C@H](CCCCN3CCN(c4ccc5c(C6CCC(=O)NC6=O)nn(C)c5c4)C[C@@H]3C(F)(F)F)CC2)cccc1-c1ccc(N2CCc3cccc(C(=O)Nc4nc5ccccc5s4)c3C2)nc1C(=O)O` (stereo partly drawn) [Compound 346a, 6-(8-(benzo[d]thiazol-2-ylcarbamoyl)-3,4-dihydroisoquinolin-2(1H)-yl)-3-(3-(((1s,4r)-4-(4-((2R)-4-(3-(2,6-dioxopiperidin-3-yl)-1-methyl-1H-indazol-6-yl)-2-(trifluoromethyl)piperazin-1-yl)butyl)cyclohexyl)oxy)-2-methylphenyl)picolinic acid], the “Ymin (24 h)” value is recorded as “A (Ymin < 50%)” and the DC50 is less than 0.1 µM.

With `Cc1c(O[C@H]2CC[C@H](CCCCN3CCN(c4ccc5c(C6CCC(=O)NC6=O)nn(C)c5c4)C[C@H]3C(F)(F)F)CC2)cccc1-c1ccc(N2CCc3cccc(C(=O)Nc4nc5ccccc5s4)c3C2)nc1C(=O)O` (stereo partly drawn) [Compound 346b, 6-(8-(benzo[d]thiazol-2-ylcarbamoyl)-3,4-dihydroisoquinolin-2(1H)-yl)-3-(3-(((1r,4r)-4-(4-((2S)-4-(3-(2,6-dioxopiperidin-3-yl)-1-methyl-1H-indazol-6-yl)-2-(trifluoromethyl)piperazin-1-yl)butyl)cyclohexyl)oxy)-2-methylphenyl)picolinic acid], the “Ymin (24 h)” value is “A (Ymin < 50%)” and the DC50 was less than 0.1 µM.

As to `Cc1c(O[C@H]2CC[C@H](CCCN3CCN(c4ccc5c(C6CCC(=O)NC6=O)nn(C)c5c4)C[C@@H]3C(F)(F)F)CC2)cccc1-c1ccc(N2CCc3cccc(C(=O)Nc4nc5ccccc5s4)c3C2)nc1C(=O)O` (stereo partly drawn) [Compound 347a, 6-(8-(benzo[d]thiazol-2-ylcarbamoyl)-3,4-dihydroisoquinolin-2(1H)-yl)-3-(3-(((1s,4r)-4-(3-((2R)-4-(3-(2,6-dioxopiperidin-3-yl)-1-methyl-1H-indazol-6-yl)-2-(trifluoromethyl)piperazin-1-yl)propyl)cyclohexyl)oxy)-2-methylphenyl)picolinic acid], the “Ymin (24 h)” value is “A (Ymin < 50%)” and the DC50 was less than 0.1 µM.

In the case of `Cc1c(O[C@H]2CC[C@H](CCCN3CCN(c4ccc5c(C6CCC(=O)NC6=O)nn(C)c5c4)C[C@H]3C(F)(F)F)CC2)cccc1-c1ccc(N2CCc3cccc(C(=O)Nc4nc5ccccc5s4)c3C2)nc1C(=O)O` (stereo partly drawn) [Compound 347b, 6-(8-(benzo[d]thiazol-2-ylcarbamoyl)-3,4-dihydroisoquinolin-2(1H)-yl)-3-(3-(((1r,4r)-4-(3-((2S)-4-(3-(2,6-dioxopiperidin-3-yl)-1-methyl-1H-indazol-6-yl)-2-(trifluoromethyl)piperazin-1-yl)propyl)cyclohexyl)oxy)-2-methylphenyl)picolinic acid], the “Ymin (24 h)” value is given as “A (Ymin < 50%)” and the DC50 was less than 0.1 µM.

`Cc1c(O[C@H]2CC[C@H](CCCC(C)(C)N3CCN(c4ccc5c(C6CCC(=O)NC6=O)nn(C)c5c4)CC3)CC2)cccc1-c1ccc(N2CCc3cccc(C(=O)Nc4nc5ccccc5s4)c3C2)nc1C(=O)O` (stereo partly shown) [Compound 350a, 6-(8-(benzo[d]thiazol-2-ylcarbamoyl)-3,4-dihydroisoquinolin-2(1H)-yl)-3-(3-(((1s,4r)-4-(4-(4-(3-(2,6-dioxopiperidin-3-yl)-1-methyl-1H-indazol-6-yl)piperazin-1-yl)-4-methylpentyl)cyclohexyl)oxy)-2-methylphenyl)picolinic acid]: the “Ymin (24 h)” value is “A (Ymin < 50%)” and the DC50 was less than 0.1 µM.
